In patent publication US20220387485A1, “METHODS OF TREATING CANCER WITH A COMBINATION OF A PLATINUM-BASED AGENT AND AN ANTI-TISSUE FACTOR ANTIBODY-DRUG CONJUGATE” (priority 2019, published 2022):

What was measured:
[1] = tested on: recurrent or metastatic squamous carcinoma of the uterine cervix; conditions: single agent, cited from earlier work
[2] = tested on: HuPrime® cervical xenograft model CV1248 [P3]; test: Cervical cancer PDX mouse model, tisotumab vedotin with carboplatin (Example 3); type: in vivo, BALB/c nude mice; conditions: for Tumor growth (FIGS. 3A and 3B): single agent, tisotumab vedotin 2 mg/kg, carboplatin 40 or 80 mg/kg, day 0, 7, 14 intravenous
Method: The in vivo anti-tumor efficacy of tisotumab vedotin in combination with carboplatin was evaluated in a patient-derived xenograft (PDX) mouse model in female BALB/c nude mice (Crown Bioscience [Taicang] Inc.). Xenografts were derived from tumor specimens from cancer patients. Tumor fragments were obtained from xenografts in serial passage in nude mice. Tumors were cut into fragments of 2-4 mm diameter and placed in phosphate-buffered saline (PBS) until subcutaneous implantation. A cervical cancer PDX model (HuPrime® cervical xenograft model CV1248 [P3]; Crown Bioscience Inc.) was used in this experiment. Tumor size was determined by caliper measurement at least two times a week and tumor volume was calculated as […]. When tumors reached an average volume of 150 mm^3, mice were randomized in 7 groups (10 mice per treatment group). The day of randomization was designated day 0. Mice were treated with the following by intravenous injections: 1) tisotumab vedotin alone at a dose level of 2 mg/kg, provided on day 0, day 7 and day 14; 2) carboplatin (Selleck Chemicals, cat. no. S121511) alone at a dose of 40 mg/kg or 80 mg/kg, provided on day 0, day 7 and day 14; 3) tisotumab vedotin at a dose level of 2 mg/kg, provided on day 0, day 7 and day 14 in combination with carboplatin at a dose of 40 mg/kg or 80 mg/kg, provided on day 0, day 7 and day 14; 4) IgG1 isotype control at a dose of 2 mg/kg provided on day 0, day 7 and day 14; or 5) IgG1-MMAE control at a dose of 2 mg/kg provided on day 0, day7 and day 14. […] Mice were housed in individually ventilated (IVC) cages, up to a maximum of five mice per cage and identified by ear tags. To determine whether there were statistically significant differences between tumor volumes in control and treatment groups, tumor volumes in the treatment groups were compared with those in the control group (e.g., treatment groups vs IgG1-MMAE control) and combination treatment groups were compared with groups treated with either of the compounds alone, using Mann-Whitney analysis at the last day that all groups were intact, i.e., day 20. For analysis of progression-free survival time (tumor size cut-off 750 mm^3), Mantel-Cox analysis was performed on Kaplan-Meier plots.

[3] = tested on: stage IVB, recurrent, or persistent squamous cell carcinoma of the cervix; conditions: cited from earlier work
[4] = tested on: bladder xenograft model BXF1036; test: Bladder cancer PDX mouse model, tisotumab vedotin with cisplatin (Example 2); type: in vivo, Crl:NMRI-Foxn1^nu nude mice; conditions: single agent; for Tumor growth (FIG. 2A-C): tisotumab vedotin 0.5 mg/kg day 1 intravenously, cisplatin 2 mg/kg day 1 and 8 subcutaneously; for Survival (FIG. 2D): tisotumab vedotin 0.5 mg/kg, cisplatin 2 mg/kg, tumor size cut-off 500 mm^3
Method: The in vivo anti-tumor efficacy of tisotumab vedotin in combination with cisplatin was evaluated in A PDX mouse model in female Crl:NMRI-Foxn1^nu (Envigo RMS SARL, France) nude mice (Charles River Discovery Research Services). Xenografts were derived from tumor specimens from cancer patients. Establishment and characterization of the PDX model was performed following primary implantation into nude mice. Tumor xenografts were passaged approximately three to five times until establishment of stable growth patterns. Tumor fragments were obtained from xenografts in serial passage in nude mice. Tumors were cut into fragments of 3-4 mm diameter and placed in phosphate-buffered saline (PBS) until subcutaneous implantation. A bladder cancer PDX model (bladder xenograft model BXF1036; Charles River Discovery Research Services) was used in this experiment. Tumor size was determined by caliper measurement at least two times a week and tumor volume was calculated as 0.52×length×width. When tumors reached the volume of 50-250 mm^3, mice were randomized in 5 groups (10 mice per treatment group). Mice were treated with the following: 1) tisotumab vedotin alone at a dose level of 0.5 mg/kg provided on day 1 of treatment; 2) cisplatin alone at a dose of 2 mg/kg provided on day 1 and day 8 of treatment; 3) tisotumab vedotin at a dose level of 0.5 mg/kg provided on day 1 of treatment in combination with cisplatin at a dose of 2 mg/kg provided on day 1 and day 8 of treatment; 4) IgG1 isotype control at a dose of 0.5 mg/kg provided on day 1 of treatment; or 5) IgG1-MMAE control at a dose of 0.5 mg/kg provided on day 1 of treatment. IgG1 isotype control, IgG1-MMAE control and tisotumab vedotin were each in PBS and injected intravenously. Cisplatin was in 0.9% NaCl and injected subcutaneously. […] Mice were housed in individually ventilated (IVC) cages, with a maximum of five mice per cage, and identified by ear tags.
To determine whether there were statistically significant differences between tumor volumes in control and treatment groups, tumor volumes in the treatment groups were compared with those in the control groups (e.g., IgG1-MMAE control, tisotumab vedotin alone or cisplatin alone) using Mann-Whitney analysis at the last day that all groups were intact, i.e., day 25. Statistical analysis of the difference between groups treated with tisotumab vedotin in combination with cisplatin and groups treated with either tisotumab vedotin alone or cisplatin alone was performed on day 32.
Tumor progression was plotted in a Kaplan-Meier plot, with a cut-off set at a tumor volume >500 mm^3. […]

[5] = tested on: HuPrime® cervical xenograft model CV1248 [R4P5]; test: Cervical cancer PDX mouse model, tisotumab vedotin with cisplatin (Example 1); type: in vivo, BALB/c nude mice; conditions: single agent; for Tumor growth (FIG. 1A-C): tisotumab vedotin 2 mg/kg and 4 mg/kg day 0, 7, cisplatin 4 mg/kg day 0, 7, 14, intravenous; for Survival (FIGS. 1D and 1E): tisotumab vedotin 2 mg/kg and 4 mg/kg, cisplatin 4 mg/kg, tumor size cut-off 1000 mm^3
Method: The in vivo anti-tumor efficacy of tisotumab vedotin in combination with cisplatin was evaluated in a patient-derived xenograft (PDX) mouse model in BALB/c nude mice (Crown Bioscience Inc.). Xenografts were derived from tumor specimens from cancer patients. Establishment and characterization of the PDX model was performed following primary implantation into nude mice. Tumor xenografts were passaged approximately three to five times until establishment of stable growth patterns. Tumor fragments were obtained from xenografts in serial passage in nude mice. Tumors were cut into fragments of 2-3 mm diameter and placed in phosphate-buffered saline (PBS) until subcutaneous implantation. A cervical cancer PDX model (HuPrime® cervical xenograft model CV1248 [R4P5]; Crown Bioscience Inc.) was used in this experiment. Tumor size was determined by caliper measurement at least two times a week and tumor volume was calculated as 0.5×length×width. When tumors reached the volume of 200 mm^3, mice were randomized in 11 groups (7-8 mice per treatment group). Mice were treated with the following by intravenous injections: 1) tisotumab vedotin alone at a dose level of 0.5 mg/kg, 1 mg/kg, 2 mg/kg or 4 mg/kg provided on day 0 and day 7 of treatment; 2) cisplatin alone at a dose of 4 mg/kg provided on day 0, day 7 and day 14 of treatment; 3) tisotumab vedotin at a dose level of 0.5 mg/kg, 1 mg/kg, 2 mg/kg or 4 mg/kg provided on day 0 and day 7 of treatment in combination with cisplatin at a dose of 4 mg/kg provided on day 0, day 7 and day 14 of treatment; 4) IgG1 isotype control at a dose of 4 mg/kg provided on day 0 and day 7 of treatment; or 5) IgG1-MMAE control at a dose of 4 mg/kg provided on day 0 and day 7 of treatment. […] Mice were housed in individually ventilated (IVC) cages, four or five mice per cage and identified by ear tags.
To determine whether there were statistically significant differences between tumor volumes in control and treatment groups, tumor volumes in the treatment groups were compared with those in the control group (e.g., treatment groups vs IgG1-MMAE control) using Mann-Whitney analysis at the last day that all groups were intact, i.e., day 38. For survival analysis (tumor volume cut-off was 1,000 mm^3). Mantel-Cox analysis was performed on Kaplan-Meier plots with a cut-off set at tumor volume >1,000 mm^3.

[6] = tested on: relapsed, recurrent, and/or metastatic cervical cancer; conditions: cited from earlier work
[7] = tested on: PD-L1-positive recurrent or metastatic cervical cancer (r/mCC); conditions: 2 L+; 42% of patients previously treated with bevacizumab; cited from earlier work

N.N.O=C([O-])C1(C(=O)[O-])CCC1.[Pt+2] [Carboplatin, carboplatin]
overall response rate ([1]; 6/41): 15% | major toxic effects: anemia [1]: 47% | major toxic effects: leukopenia [1]: 38% | major toxic effects: nausea and vomiting [1]: 48% | major toxic effects: thrombocytopenia [1]: 22% | Average tumor volume Mann-Whitney Day 20 P value ([2]; carboplatin 40 mg/kg vs IgG1-MMAE): 0.5787 | Average tumor volume Mann-Whitney Day 20 P value ([2]; carboplatin 80 mg/kg vs IgG1-MMAE): 0.1716 | Tumor growth (FIGS. 3A and 3B) [2]: did not inhibit tumor growth

N.N.[Cl][Pt][Cl] [Cisplatin]
median PFS ([3]; P<0.001 between arms): 2.8 months | Objective responses (OR) ([3]; P=0.002 between arms): 19% | median survival ([3]; at the time of data cutoff, no difference): 8.8 months | Objective responses: complete ([3]; in vivo): 6% | Objective responses: partial ([3]; in vivo): 13% | Tumor growth (FIG. 2A-C) [4]: inhibited tumor growth | Survival (FIG. 2D) [4]: prolonged survival | Tumor growth (FIG. 1A-C) [5]: inhibited tumor growth | Survival (FIGS. 1D and 1E) [5]: prolonged survival

Tisotumab vedotin
AEs of grade 1-2 conjunctivitis ([6]; in vivo): frequently reported | Clinically relevant perturbations in activated partial thromboplastin time (aPTT) or prothrombin time (PT) ([6]; in vivo): have not been observed | Epistaxis, frequency among bleeding AEs ([6]; in vivo): most common reported AE | Epistaxis, severity ([6]; in vivo): nearly all of the cases are grade 1 | Peripheral neuropathy, grade of the majority of the reported cases ([6]; in vivo): grade 1-2 | Peripheral neuropathy, share of subjects ([6]; subjects who received treatment with tisotumab vedotin): approximately 35% | Tumor growth (FIG. 2A-C) [4]: efficiently inhibited tumor growth | Survival (FIG. 2D) [4]: prolonged survival | Tumor growth (FIGS. 3A and 3B) [2]: efficiently inhibited tumor growth | Average tumor volume Mann-Whitney Day 20 P value ([2]; tisotumab vedotin 2 mg/kg vs IgG1-MMAE): 0.0068 | Tumor growth (FIG. 1A-C) [5]: efficiently inhibited tumor growth | Survival (FIGS. 1D and 1E) [5]: prolonged survival

pembrolizumab
objective response rate (ORR) [7]: 14%
